Experimental data reported in EP2204398A1, “CA[…] DERIVATIVE AND USES OF THE SAME” (NanoCarrier Co., Ltd., priority 2008, dated 2009).

Assays:
[1] = Test for blood kinetics in rat (CPT concentration in blood plasma by HPLC); type: in vivo, male Wister rat; conditions: tail vein, camptothecin in DMSO, administered in the same manner, n=1
Procedure: In a sample vial, 50 mg of the complex obtained in Example 1 which was weighed precisely was placed, and 1 mL of purified water was added thereto, followed by suspending the polymer. The resulting suspension was stirred for one day and night, and sonicated using Biodisruptor (Nihonseiki Kaisha Ltd., High Power Unit) with ice cooling for 10 minutes, followed by filtration through a 0.22 µm filter (Millipore, MILLEX (registered trademark) GP PES) and recovery of the resulting filtrate. […]
To 30 µL of the collected rat blood plasma, 100 µL of acetonitrile and 20 µL of 10 mM HCl were sequentially added, and the resulting mixture was stirred. […] The filtrate was filled in an HPLC sample vial, and the concentration of free CPT in the blood plasma was determined.
The HPLC conditions were as followed. Unless otherwise specified, the HPLC analysis of CPT was carried out under the same conditions. • System: Waters Alliance System • Column: Tosoh TSK-gel ODS-80TM (Φ4.6 × 150 mm) (40°C) • Mobile phase: 25 mM ammonium formate buffer (pH 3.0)/acetonitrile=70/30 • Flow rate: 1 mL/min. • Detection: fluorescence (Ex: 370 nm, Em: 420 nm) Injection volume: 20 µL

[2] = test system: Human Prostate Cancer PC-3 Cells; assay: Test for pharmacological effect using human prostate cancer PC-3 cells - 1 (tumor volume); type: in vivo, male nude mice; conditions: CPT DMSO solution 7 mg/kg, tail vein, 3 times at intervals of 4 days, n=7
Procedure: (§1) PC-3 cells (purchased from ATCC via Summit Pharmaceuticals International Corporation; which provision is also applied hereinafter) were cultured using RPMI1640 + 10% FBS medium under 5% CO2 at 37°C to allow their growth to attain the cell number required for transplantation. The cells were suspended in physiological saline and subcutaneously inoculated to the back of male nude mice [Blab nu/nu, 8 weeks old, Charles River Laboratories Japan] such that the dose of 3 × 10^6 cells/100 µL per mouse was attained. Thereafter, the nude mice were kept for 7 days, and when the tumor volume reached 83.3 t 6.2 mm^3 (average ± SE, wherein SE indicates standard error; which provision is also applied hereinafter), administration of drugs were started. A total of 3 times of administration through the tail vein at intervals of 4 days were scheduled, and changes in the tumor volume and body weight with time were measured for 3 groups (n=7), that is, (1) control (untreated); (2) the CPT DMSO solution 7 mg/kg; and (3) PEG-pAsp-CPT 3 mg/kg (the dose is based on the amount of camptothecin (mg/kg/injection)). The major diameter (a mm) and the minor diameter (b mm) of each tumor were measured using an electronic caliper (Mitutoyo Corporation), and the tumor volume was calculated according to the following equation.
(§2) Tumor volume (mm^3) = a × b^2 /2 [formula] […]

[3] = Changes in body weight in PC-3 tumor-bearing animals, test 1; type: in vivo, male nude mice; conditions: CPT DMSO solution 7 mg/kg, tail vein, 3 times at intervals of 4 days, n=7
Procedure: as §1, §2

## CC[C@@]1(O)C(=O)OCc2c1cc1n(c2=O)Cc2cc3ccccc3nc2-1 [CPT solution, camptothecin]
[1]
  blood concentration: decreased rapidly
[2]
  tumor growth inhibition effect in comparison with the control group: hardly observed
[3]
  body weight decrease at maximum: ≥ 10%
